Measurements: US20070293666A1, “Optical Filter and Its Applications, and Porphyrin Compound Used in Optical Filter” (Mitsui Chemicals, Inc., priority 2004, published 2007)

Assays:
Assay type in all cases: physicochemical
[1] = Absorption spectrum in chloroform (maximum absorption wavelength, gram absorption coefficient, 550/525 nm coefficient ratio); details: for εg (gram absorption coefficient) / λmax: chloroform solution; for Ratio of Absorption Coefficient at 525 nm and 550 nm: coefficient at 550 nm to coefficient at 525 nm
Method: (§1) Compounds represented by the compound Nos. 1-1, 1-2, 1-3, 1-4 and 1-7 (Table 1-1) were synthesized in the same manner as in Examples 1-1 and 1-2. With respect to compounds synthesized in Example 1-2 and Synthesis Example 1-1 along with these compounds, the maximum absorption wavelength (λmax), the gram absorption coefficient (εg) and solubility were measured.
(§2) λmax and εg are values in the chloroform solution, while the solubility is weight % based on acetone.
With respect to the compounds represented by the compound Nos. 1-2, 1-3, 1-6 and 1-7 synthesized in Examples 1-2 and 1-3 (corresponding to compounds (3-B), (3-C), (3-E) and (3-F) respectively) along with the obtained compound (3-A), the maximum absorption wavelength and the ratio of the absorption coefficient at a wavelength of 550 nm to the absorption coefficient at a wavelength of 525 nm, which were measured in a chloroform solvent, are shown in Table 3-1. [drawing 26] [drawing 27] [drawing 28] [drawing 29]

Solubility in acetone = assay: Solubility in acetone; set-up: key: ∘: completely dissolved; x: not completely dissolved; details: for Solubility 0.1%: 0.1 weight % based on acetone; for Solubility 0.2%: 0.2 weight % based on acetone; for Solubility 1.0%: 1.0 weight % based on acetone
Method: as §1, §2

[2] = Light transmittance of optical filter (dye-containing acrylic adhesive sheet, 1000 ppm dye); details: dye 1000 (wt)ppm in acrylic adhesive, 25 μm
Method: When the compound (3-A) was dispersed and dissolved in a solvent of ethyl acetate and toluene (weight ratio 50:50) and dried, a dye-containing diluting agent for an acrylic adhesive was prepared such that the dye concentration in the resin was 1000 (wt)ppm. Subsequently, the acrylic adhesive (a copolymer of butyl acrylate and acrylic acid (Product name: DBBOND, manufactured by Diabond Industry Co., Ltd.)) and a dye-containing diluting agent were mixed (weight ratio 80:20), and continuously applied on a mold releasing layer of a mold releasing film comprising a polyethylene terephthalate film and a silicone mold releasing layer according to a bar coating method, and the resulting material was dried. Then, the other mold releasing film was attached to the coating surface to prepare a dye-containing adhesive sheet having a thickness of 25 μm with mold releasing films having different mold releasing forces at both sides.
The mold releasing film on one side of the prepared adhesive sheet was peeled away and the resulting sheet was attached to a transparent acrylic resin (manufactured by Mitsubishi Rayon Co., Ltd., Acrylite, thickness: 2 mm), while the mold releasing film on the other side thereof was further peeled away and an ultraviolet blocking film (manufactured by Teijin Co., Ltd., HB Film, thickness: 75 μm) was attached to prepare an optical filter.
With respect to the obtained optical filter, the light transmittance in a wavelength of from 300 to 800 nm was measured by using a spectrophotometer (Product name: U-3400, manufactured by Hitachi, Ltd.) in accordance with JIS R3106. A percentage of light transmittance at a wavelength of 550 nm to light transmittance at a wavelength of 525 nm was obtained.

[3] = High temperature test of optical filter; details: 80° C.
Method: A dye-containing diluting agent was prepared such that the dye concentration in the resin was 1000 (wt)ppm when the dye was dispersed and dissolved in a solvent and dried. Subsequently, an acrylic adhesive (a copolymer of butyl acrylate and acrylic acid (Product name: DBBOND, manufactured by Diabond Industry Co., Ltd.) and the dye-containing diluting agent are mixed (weight ratio 80:20), and continuously applied on a mold releasing layer of a mold releasing film comprising a polyethylene terephthalate film and a silicone mold releasing layer according to the bar coating method, and the resulting material was dried. Due to this, an acrylic adhesive containing the dye having a film thickness of 25 μm was prepared. The prepared adhesive was attached to a transparent acrylic resin (manufactured by Mitsubishi Rayon Co., Ltd., Acrylite, thickness: 2 mm), and the mold releasing film of the adhesive was peeled away and an ultraviolet blocking film (manufactured by Teijin Co., Ltd., HB Film, thickness: 75 μm) was attached to give the sample for evaluation. […]
The above optical filters were kept under each environmental condition for 500 hours and 1000 hours, and light transmittance of the optical filter was measured by using the spectrophotometer after 500 hours and 1000 hours. […]

[4] = High temperature/high humidity test of optical filter; details: 60° C. and 90% RH
Method: (§3) With respect to the optical filters obtained from the compounds (3-A) and (3-B), environmental accelerated tests of high temperature, high-temperature/high-humidity and artificial sunlight irradiation were carried out. In the test, a constant temperature chamber at 80° C. (DN-61, manufactured by Yamato Scientific Co., Ltd.), a constant temperature and humidity chamber at 60° C. and 90% RH (Product name, FX2200, manufactured by Kusumoto Chemicals, Ltd.) and a solar simulator (manufactured by Ushio Inc.) were respectively used. A visible light ray in a wavelength of from 380 to 780 nm was irradiated on a surface of the ultraviolet blocking film of the above optical filter at 50 mW/cm^2 for a predetermined time in a room at a temperature of 30±10° C. and a humidity of 50±20%.
(§4) The above optical filters were kept under each environmental condition for 500 hours and 1000 hours, and light transmittance of the optical filter was measured by using the spectrophotometer after 500 hours and 1000 hours. An absorption retention rate in a maximum absorption wavelength after each environmental accelerated test was obtained from the above equation (2).

[5] = Light resistance test / artificial sunlight irradiation test of optical filter; details: visible light 380 to 780 nm; for Absorption Retention after Light resistance test for 250 hours: 50 mW/cm^2, 250 hours, 30±10° C., humidity 50±20%
Method: To evaluate light resistance of the dye, a sample prepared in the same method as in evaluation of heat resistance is used. The absorption retention rate represented by the above equation (1) is measured in the same manner as in heat resistance. However, in this case, the obtained sample is not kept under the environment of 80° C., but the above visible light ray is irradiated on a side of the ultraviolet blocking film of the sample in a room at a temperature of 30±10° C., a humidity of 50±20% for a predetermined time. Tmax,1 represents light transmittance in a maximum absorption wavelength after the above visible light ray is irradiated for a predetermined time. When there are a plurality of absorption maxima, Tmax,0 is light transmittance at a maximum absorption wavelength showing the highest absorption coefficient. Tmax,1 represents light transmittance at the same wavelength as that in Tmax,0 or at a maximum absorption wavelength nearest to the wavelength in Tmax,0.
With respect to the optical filters obtained from the compounds (3-A) to (3-F), environmental accelerated tests were carried out by artificial sunlight irradiation using a solar simulator (manufactured by Ushio Inc.). A visible light ray in a wavelength of from 380 to 780 nm was irradiated on the ultraviolet blocking film of the prepared optical filter at 50 mW/cm^2 for 250 hours in a room at a temperature of 30±10° C. and a humidity of 50±20%. At this time, an absorption retention rate represented by the above equation (1) was obtained.
as §3, §4

Compound | εg (gram absorption coefficient) [1] | λmax [1] | Solubility 0.1% (Solubility in acetone) | Solubility 0.2% (Solubility in acetone) | Solubility 1.0% (Solubility in acetone) | Maximum Absorption Wavelength ([1]; chloroform solvent) | Ratio of Absorption Coefficient at 525 nm and 550 nm ([1]; chloroform solvent) | Light Transmittance at 525 nm [2] | Light Transmittance at 550 nm [2] | T@550/T@525 Light Transmittance Ratio [2] | Absorption retention rate, High temperature test, after 500 hours ([3]; 500 hours) | Absorption retention rate, High temperature test, After 1000 hours ([3]; 1000 hours) | Absorption retention rate, High temperature/High humidity test, after 500 hours ([4]; 500 hours) | Absorption retention rate, High temperature/High humidity test, After 1000 hours ([4]; 1000 hours) | Absorption Retention after Light resistance test for 250 hours [5] | Absorption retention rate, Artificial sunlight irradiation test, after 500 hours ([5]; 50 mW/cm^2, 500 hours) | Absorption retention rate, Artificial sunlight irradiation test, After 1000 hours ([5]; 50 mW/cm^2, 1000 hours) | Maximum Absorption Wavelength ([1]; in chloroform) | gram absorption coefficient ([1]; in chloroform)
CCCCOc1ccc(C2=c3nc(c4c5cccc6cccc(c3=4)c65)C(c3ccc(OCCCC)cc3)=c3c4c(c5[n]3[Cu][n]3c2c2c(c3C(c3ccc(OCCCC)cc3)=c3nc(c6c7cccc8cccc(c3=6)c87)C=5c3ccc(OCCCC)cc3)-c3cccc5cccc-2c35)-c2cccc3cccc-4c23)cc1 [1-1] | 162,000 | 553 nm | ∘ | ∘ | x | – | – | – | – | – | – | – | – | – | – | – | – | – | –
CCCCCOc1ccc(C2=c3nc(c4c5cccc6cccc(c3=4)c65)C(c3ccc(OCCCCC)cc3)=c3c4c(c5[n]3[Cu][n]3c2c2c(c3C(c3ccc(OCCCCC)cc3)=c3nc(c6c7cccc8cccc(c3=6)c87)C=5c3ccc(OCCCCC)cc3)-c3cccc5cccc-2c35)-c2cccc3cccc-4c23)cc1 [1-2] | 154,000 | 553 nm | ∘ | ∘ | ∘ | 553 nm | 2.5 | 62.6% | 37.2% | 59% | 100% | 100% | 91% | 90% | 95% | 95% | 93% | – | –
CCCCCCOc1ccc(C2=c3nc(c4c5cccc6cccc(c3=4)c65)C(c3ccc(OCCCCCC)cc3)=c3c4c(c5[n]3[Cu][n]3c2c2c(c3C(c3ccc(OCCCCCC)cc3)=c3nc(c6c7cccc8cccc(c3=6)c87)C=5c3ccc(OCCCCCC)cc3)-c3cccc5cccc-2c35)-c2cccc3cccc-4c23)cc1 [1-3] | 122,000 | 553 nm | ∘ | ∘ | ∘ | 553 nm | 2.3 | 69.1% | 49.8% | 72% | – | – | – | – | 80% | – | – | – | –
CCCCCCCCCCOc1ccc(C2=c3nc(c4c5cccc6cccc(c3=4)c65)C(c3ccc(OCCCCCCCCCC)cc3)=c3c4c(c5[n]3[Ni][n]3c2c2c(c3C(c3ccc(OCCCCCCCCCC)cc3)=c3nc(c6c7cccc8cccc(c3=6)c87)C=5c3ccc(OCCCCCCCCCC)cc3)-c3cccc5cccc-2c35)-c2cccc3cccc-4c23)cc1 [1-6] | 135,000 | 536 nm | ∘ | ∘ | ∘ | 536 nm | 1.2 | 61.7% | 57.5% | 93% | – | – | – | – | 97% | – | – | 536 nm | 135,000
CCCCCCCCCCOc1ccc(C2=c3nc(c4c5ccc(Cl)c6c(Cl)ccc(c3=4)c65)C(c3ccc(OCCCCCCCCCC)cc3)=c3c4c(c5[n]3[Ni][n]3c2c2c(c3C(c3ccc(OCCCCCCCCCC)cc3)=c3nc(c6c7ccc(Cl)c8c(Cl)ccc(c3=6)c87)C=5c3ccc(OCCCCCCCCCC)cc3)-c3ccc(Cl)c5c(Cl)ccc-2c35)-c2ccc(Cl)c3c(Cl)ccc-4c23)cc1 [1-7] | 122,000 | 552 nm | ∘ | ∘ | ∘ | 552 nm | 1.4 | 72.0% | 66.6% | 93% | – | – | – | – | 94% | – | – | – | –
CCCCCCCCCCOc1ccc(-c2c3nc(c(-c4ccc(OCCCCCCCCCC)cc4)c4[nH]c(c(-c5ccc(OCCCCCCCCCC)cc5)c5nc(c(-c6ccc(OCCCCCCCCCC)cc6)c6[nH]c2c2c7cccc8cccc(c87)c62)c2c6cccc7cccc(c76)c52)c2c5cccc6cccc(c65)c42)c2c4cccc5cccc(c54)c32)cc1 [1-A] | – | – | – | – | – | – | – | – | – | – | – | – | – | – | – | – | – | 567 nm | 113,000
c1coc(-c2c3nc(c(-c4ccco4)c4[nH]c(c(-c5ccco5)c5nc(c(-c6ccco6)c6[nH]c2c2c7cccc8cccc(c87)c62)c2c6cccc7cccc(c76)c52)c2c5cccc6cccc(c65)c42)c2c4cccc5cccc(c54)c32)c1 [2-A] | – | – | – | – | – | – | – | – | – | – | – | – | – | – | – | – | – | 563 nm | 110,000
CC(C)(C)c1ccc(C2=c3nc(c4c5cccc6cccc(c3=4)c65)C(c3ccc(C(C)(C)C)cc3)=c3c4c(c5[n]3[Cu][n]3c2c2c(c3C(c3ccc(C(C)(C)C)cc3)=c3nc(c6c7cccc8cccc(c3=6)c87)C=5c3ccc(C(C)(C)C)cc3)-c3cccc5cccc-2c35)-c2cccc3cccc-4c23)cc1 [3-D] | – | – | – | – | – | 546 nm | 2.2 | 59.7% | 38.1% | 64% | – | – | – | – | 92% | – | – | – | –
